From patent publication EP0726261A1, “Herbidical 1,2,4 thiadiazoles” (American Cyanamid Company, priority 1995, dated 1996)

Columns and labels:
Format in all cases: in vivo
Beta vulgaris [1] = assay: Herbicidal activity, postemergence test (Example 66); set-up: key: A rating of 0 indicates growth as untreated control; a rating of 9 indicates death; details: post; 1000 g/ha; assessed visually twenty days after spraying
Method: (§1) To evaluate their herbicidal activity, compounds according to the invention are tested using a representative range of plants: ZEAMX Zea mays ORYSA Oryza sativa GLXMA Glycine max BEAVA Beta vulgaris LIUUT Linum usitatissimum AVEFA Avena fatua ECHCG Echinochloa crus-galli SINAL Sinapsis alba
(§2) The tests fall into two categories, preemergence and postemergence. The preemergence tests involve spraying a liquid formulation of the compound onto the soil in which the seeds of the plant species mentioned above have recently been sown. The postemergence tests involve spraying a liquid formulation of the compound onto seedling plants of the above species.
(§3) The soil used in the tests is a prepared horticultural loam.
(§4) The formulations used in the tests are prepared from solutions of the test compounds in acetone containing 0.4% by weight of an alkylphenol/ethylene oxide condensate available under the trademark TRITON X-155. These acetone solutions are diluted with water and the resulting formulations applied at dosage levels corresponding to 1000 g of active material per hectare in a volume equivalent to 900 litres per hectare.
(§5) In the preemergence tests, untreated sown soil, and in the postemergence tests, untreated soil bearing seedling plants, are used as controls.
(§6) The herbicidal effects of the test compounds are assessed visually twenty days after spraying the foliage and the soil and are recorded on a 0-9 scale. A rating of 0 indicates growth as untreated control, a rating of 9 indicates death. An increase of 1 unit on the linear scale approximates to an 11% increase in the level of effect.

Sinapsis alba [2] = assay: as above; set-up: key: A rating of 0 indicates growth as untreated control; a rating of 9 indicates death; details: post; 1000 g/ha; assessed visually twenty days after spraying
Method: as §1, §2, §3, §4, §5, §6

Echinochloa crus-galli [3] = assay: as above; set-up: key: A rating of 0 indicates growth as untreated control; a rating of 9 indicates death; details: post; 1000 g/ha; assessed visually twenty days after spraying
Method: as §1, §2, §3, §4, §5, §6

Linum usitatissimum [4] = assay: as above; set-up: key: A rating of 0 indicates growth as untreated control; a rating of 9 indicates death; details: post; 1000 g/ha; assessed visually twenty days after spraying
Method: as §1, §2, §3, §4, §5, §6

Oryza sativa [5] = assay: as above; set-up: key: A rating of 0 indicates growth as untreated control; a rating of 9 indicates death; details: post; 1000 g/ha; assessed visually twenty days after spraying
Method: as §1, §2, §3, §4, §5, §6

Avena fatua [6] = assay: as above; set-up: key: A rating of 0 indicates growth as untreated control; a rating of 9 indicates death; details: post; 1000 g/ha; assessed visually twenty days after spraying
Method: as §1, §2, §3, §4, §5, §6

Zea mays [7] = assay: as above; set-up: key: A rating of 0 indicates growth as untreated control; a rating of 9 indicates death; details: post; 1000 g/ha; assessed visually twenty days after spraying
Method: as §1, §2, §3, §4, §5, §6

Glycine max [8] = assay: as above; details: post; 1000 g/ha; assessed visually twenty days after spraying
Method: as §1, §2, §3, §4, §5, §6

Beta vulgaris [9] = assay: Herbicidal activity, preemergence test (Example 66); set-up: key: A rating of 0 indicates growth as untreated control; a rating of 9 indicates death; details: pre; 1000 g/ha; assessed visually twenty days after spraying
Method: as §1, §2, §3, §4, §5, §6

Glycine max [10] = assay: as above; set-up: key: A rating of 0 indicates growth as untreated control; a rating of 9 indicates death; details: pre; 1000 g/ha; assessed visually twenty days after spraying
Method: as §1, §2, §3, §4, §5, §6

Sinapsis alba [11] = assay: as above; set-up: key: A rating of 0 indicates growth as untreated control; a rating of 9 indicates death; details: pre; 1000 g/ha; assessed visually twenty days after spraying
Method: as §1, §2, §3, §4, §5, §6

Echinochloa crus-galli [12] = assay: as above; set-up: key: A rating of 0 indicates growth as untreated control; a rating of 9 indicates death; details: pre; 1000 g/ha; assessed visually twenty days after spraying
Method: as §1, §2, §3, §4, §5, §6

Linum usitatissimum [13] = assay: as above; set-up: key: A rating of 0 indicates growth as untreated control; a rating of 9 indicates death; details: pre; 1000 g/ha; assessed visually twenty days after spraying
Method: as §1, §2, §3, §4, §5, §6

Oryza sativa [14] = assay: as above; set-up: key: A rating of 0 indicates growth as untreated control; a rating of 9 indicates death; details: pre; 1000 g/ha; assessed visually twenty days after spraying
Method: as §1, §2, §3, §4, §5, §6

Avena fatua [15] = assay: as above; set-up: key: A rating of 0 indicates growth as untreated control; a rating of 9 indicates death; details: pre; 1000 g/ha; assessed visually twenty days after spraying
Method: as §1, §2, §3, §4, §5, §6

Zea mays [16] = assay: as above; set-up: key: A rating of 0 indicates growth as untreated control; a rating of 9 indicates death; details: pre; 1000 g/ha; assessed visually twenty days after spraying
Method: as §1, §2, §3, §4, §5, §6

Alopecurus myosuroides [17] = assay: Preemergence herbicidal activity (Example 67); set-up: herbicide rating, ALOMY: scale not given here; details: pre; 800 g/ha; rated about 1-3 weeks after treatment
In short: (§7)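 Test compound was dissolved in acetone containing 0.5% alkylphenol/ethylene oxide condensate, diluted with water and sprayed onto the soil surface of cups at 800g/ha in 400 L/ha (3 bar nozzle). Cups were kept under standard greenhouse conditions and rated about 1-3 weeks after treatment.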

Triticum aestivum [18] = assay: Preemergence herbicidal activity (Example 67); set-up: herbicide rating, TRZAW: scale not given here; details: pre; 800 g/ha; rated about 1-3 weeks after treatment
In short: as §7

Setaria viridis [19] = assay: Preemergence herbicidal activity (Example 67); set-up: herbicide rating, SETVI: scale not given here; details: pre; 800 g/ha; rated about 1-3 weeks after treatment
In short: as §7

Amaranthus retroflexus [20] = assay: Postemergence herbicidal activity (Example 67); details: pos; 800 g/ha; rated after 10-21 days
In short: (§8)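 Seedlings 3-6 weeks old, grown in peat/volcanic clay/bark/polyamide substrate mixed 1:3 with loamy sand, were sprayed postemergence at 800g/ha in 400 L/ha. Compound dissolved in acetone with 0.5% TRITON X-155, diluted in water. Plants kept in greenhouse and rated visually after 10-21 days.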

Ipomoea hederacea [21] = assay: Postemergence herbicidal activity (Example 67); details: pos; 800 g/ha; rated after 10-21 days
In short: as §8

Setaria viridis [22] = assay: Postemergence herbicidal activity (Example 67); details: pos; 800 g/ha; rated after 10-21 days
In short: as §8

Chenopodium album [23] = assay: Postemergence herbicidal activity (Example 67); details: pos; 800 g/ha; rated after 10-21 days
In short: as §8

Abutilon theophrasti [24] = assay: Postemergence herbicidal activity (Example 67); details: pos; 800 g/ha; rated after 10-21 days
In short: as §8

Hordeum vulgare [25] = assay: Postemergence herbicidal activity (Example 67); details: pos; 800 g/ha; rated after 10-21 days
In short: as §8

Alopecurus myosuroides [26] = assay: Postemergence herbicidal activity (Example 67); details: pos; 800 g/ha; rated after 10-21 days
In short: as §8

Veronica persica [27] = assay: Postemergence herbicidal activity (Example 67); details: pos; 800 g/ha; rated after 10-21 days
In short: as §8

Helianthus annuus [28] = assay: Postemergence herbicidal activity (Example 67); details: pos; 800 g/ha; rated after 10-21 days
In short: as §8

Galium aparine [29] = assay: Postemergence herbicidal activity (Example 67); details: pos; 800 g/ha; rated after 10-21 days
In short: as §8

Triticum aestivum [30] = assay: Postemergence herbicidal activity (Example 67); details: pos; 800 g/ha; rated after 10-21 days
In short: as §8

Zea mays [31] = assay: Postemergence herbicidal activity (Example 67); details: pos; 800 g/ha; rated after 10-21 days
In short: as §8

Hordeum vulgare [32] = assay: Preemergence herbicidal activity (Example 67); set-up: herbicide rating, HORVW: scale not given here; details: pre; 800 g/ha; rated about 1-3 weeks after treatment
In short: as §7

Amaranthus retroflexus [33] = assay: Preemergence herbicidal activity (Example 67); details: pre; 800 g/ha; rated about 1-3 weeks after treatment
In short: as §7

Ipomoea hederacea [34] = assay: Preemergence herbicidal activity (Example 67); details: pre; 800 g/ha; rated about 1-3 weeks after treatment
In short: as §7

Chenopodium album [35] = assay: Preemergence herbicidal activity (Example 67); details: pre; 800 g/ha; rated about 1-3 weeks after treatment
In short: as §7

Abutilon theophrasti [36] = assay: Preemergence herbicidal activity (Example 67); details: pre; 800 g/ha; rated about 1-3 weeks after treatment
In short: as §7

Veronica persica [37] = assay: Preemergence herbicidal activity (Example 67); details: pre; 800 g/ha; rated about 1-3 weeks after treatment
In short: as §7

Helianthus annuus [38] = assay: Preemergence herbicidal activity (Example 67); details: pre; 800 g/ha; rated about 1-3 weeks after treatment
In short: as §7

Galium aparine [39] = assay: Preemergence herbicidal activity (Example 67); details: pre; 800 g/ha; rated about 1-3 weeks after treatment
In short: as §7

Zea mays [40] = assay: Preemergence herbicidal activity (Example 67); details: pre; 800 g/ha; rated about 1-3 weeks after treatment
In short: as §7

Compound: CC(C)c1nsc(C(=O)N[C@@H](C)c2ccccc2)n1 [Example 10, (S)-3-Isopropyl-[1,2,4]thiadiazole-5-carboxylic acid, 1-(phenylethyl)amide]
- herbicidal effects on a 0-9 scale, BEAVA (Beta vulgaris [1]): 8
- herbicidal effects on a 0-9 scale, SINAL (Sinapsis alba [2]): 8
- herbicidal effects on a 0-9 scale, ECHCG (Echinochloa crus-galli [3]): 8
- herbicidal effects on a 0-9 scale, LIUUT (Linum usitatissimum [4]): 8
- herbicidal effects on a 0-9 scale, ORYSA (Oryza sativa [5]): 0
- herbicidal effects on a 0-9 scale, AVEFA (Avena fatua [6]): 5
- herbicidal effects on a 0-9 scale, ZEAMX (Zea mays [7]): 2
- herbicidal effects on a 0-9 scale, GLXMA (Glycine max [8]): 5
- herbicidal effects on a 0-9 scale, BEAVA (Beta vulgaris [9]): 7
- herbicidal effects on a 0-9 scale, GLXMA (Glycine max [10]): 0
- herbicidal effects on a 0-9 scale, SINAL (Sinapsis alba [11]): 7
- herbicidal effects on a 0-9 scale, ECHCG (Echinochloa crus-galli [12]): 5
- herbicidal effects on a 0-9 scale, LIUUT (Linum usitatissimum [13]): 4
- herbicidal effects on a 0-9 scale, ORYSA (Oryza sativa [14]): 0
- herbicidal effects on a 0-9 scale, AVEFA (Avena fatua [15]): 0
- herbicidal effects on a 0-9 scale, ZEAMX (Zea mays [16]): 0

Compound: CC(C)c1nsc(C(=O)NC(C)c2cccs2)n1 (racemic) [Example 1, (R/S)-3-Isopropyl-[1,2,4]thiadiazole-5-carboxylic acid, [1-(2-thienyl)ethyl]amide]
- herbicidal effects on a 0-9 scale, BEAVA (Beta vulgaris [1]): 9
- herbicidal effects on a 0-9 scale, SINAL (Sinapsis alba [2]): 9
- herbicidal effects on a 0-9 scale, ECHCG (Echinochloa crus-galli [3]): 9
- herbicidal effects on a 0-9 scale, LIUUT (Linum usitatissimum [4]): 9
- herbicidal effects on a 0-9 scale, ORYSA (Oryza sativa [5]): 0
- herbicidal effects on a 0-9 scale, AVEFA (Avena fatua [6]): 5
- herbicidal effects on a 0-9 scale, ZEAMX (Zea mays [7]): 0
- herbicidal effects on a 0-9 scale, GLXMA (Glycine max [8]): 6
- herbicidal effects on a 0-9 scale, BEAVA (Beta vulgaris [9]): 7
- herbicidal effects on a 0-9 scale, GLXMA (Glycine max [10]): 0
- herbicidal effects on a 0-9 scale, SINAL (Sinapsis alba [11]): 7
- herbicidal effects on a 0-9 scale, ECHCG (Echinochloa crus-galli [12]): 5
- herbicidal effects on a 0-9 scale, LIUUT (Linum usitatissimum [13]): 2
- herbicidal effects on a 0-9 scale, ORYSA (Oryza sativa [14]): 0
- herbicidal effects on a 0-9 scale, AVEFA (Avena fatua [15]): 2
- herbicidal effects on a 0-9 scale, ZEAMX (Zea mays [16]): 0

Compound: C[C@H](NC(=O)c1nc(-c2ccc(Cl)cc2)ns1)c1ccccc1 [Example 27, (S)-3-(4-Chlorophenyl)-[1,2,4]thiadiazole-5-carboxylic acid, 1-(phenylethyl) amide]
- herbicide rating, ALOMY (Alopecurus myosuroides [17]): 0
- herbicide rating, TRZAW (Triticum aestivum [18]): 0
- herbicide rating, SETVI (Setaria viridis [19]): 0
- herbicide rating, AMARE (Amaranthus retroflexus [20]): 5 (45-64%)
- herbicide rating, IPOHE (Ipomoea hederacea [21]): 7 (80-90%)
- herbicide rating, SETVI (Setaria viridis [22]): 8 (91-99%)
- herbicide rating, CHEAL (Chenopodium album [23]): 4 (30-44%)
- herbicide rating, ABUTH (Abutilon theophrasti [24]): 6 (65-79%)
- herbicide rating, HORVW (Hordeum vulgare [25]): 2 (6-15%)
- herbicide rating, ALOMY (Alopecurus myosuroides [26]): 4 (30-44%)
- herbicide rating, VERPE (Veronica persica [27]): 7 (80-90%)
- herbicide rating, HELAN (Helianthus annuus [28]): 8 (91-99%)
- herbicide rating, GALAP (Galium aparine [29]): 5 (45-64%)
- herbicide rating, TRZAW (Triticum aestivum [30]): 2 (6-15%)
- herbicide rating, ZEAMX (Zea mays [31]): 5 (45-64%)
- herbicide rating, HORVW (Hordeum vulgare [32]): 0
- herbicide rating, AMARE (Amaranthus retroflexus [33]): 0
- herbicide rating, IPOHE (Ipomoea hederacea [34]): 1 (1-5%)
- herbicide rating, CHEAL (Chenopodium album [35]): 2 (6-15%)
- herbicide rating, ABUTH (Abutilon theophrasti [36]): 0
- herbicide rating, VERPE (Veronica persica [37]): 7 (80-90%)
- herbicide rating, HELAN (Helianthus annuus [38]): 3 (16-29%)
- herbicide rating, GALAP (Galium aparine [39]): 0
- herbicide rating, ZEAMX (Zea mays [40]): 0
